Source: patent US20100249419A1, “UTILIZATION OF NOVEL COMPOUNDS WITH AMYLOID AFFINITY AND METHOD OF PRODUCING THE SAME” (NIHON MEDI-PHYSICS CO., LTD., priority 2007, published 2010)

Columns and labels:
[1] = Transferability into brain and clearance; type: in vivo, male Wistar rats; conditions: intravenous injection, rats
Experimental: Using Compound 1 (Example 10) and Compound 2 (Example 11), a time course change of radioactive accumulation in brain of male Wistar rats (7-week old) was measured.
A diethyl ether solution of Compound 1 (Example 10) prepared in Example 3, a diethyl ether solution of Compound 2 (Example 11) prepared in Example 6 and a diethyl ether solution of [^123I]-IMPY (Comparative Example 5) prepared in Reference Example 1 were each diluted with 10 mg/mL ascorbic acid-containing physiological saline solution to adjust to a radioactive concentration of 8-12 MBq/mL. 0.05 mL each of the prepared sample solutions was injected under thiopental anesthesia into the tail vein of the rats. The rats were sacrificed by bleeding from abdominal artery, and brains were removed and subjected to measurement of mass of brains and further subjected to measurement of radioactivity (hereinafter referred to as A in this Example) with a single channel analyzer (detector type: SP-20 manufactured by OHYO KOKEN KOGYO Co., Ltd.) 2, 5, 30 and 60 minutes after the injection. Further, the radioactivity level of the rest of the whole body was measured in the same manner as above (hereinafter referred to as B in this Example). Using these measurement results, radioactive distribution per unit weight of brain (% ID/g) at the respective time points were calculated in accordance with the following formula (3).
Three animals were used for the experiment at the respective time points.
Using Compound 4 and Compound 6, a time course change of radioactive accumulation in brain of male Wistar rats (7-week old) was measured.
Compound 4 (Example 22), Compound 6 (Example 23) and a solution of [^123I]-IMPY (Comparative Example 8) prepared above in Reference Example 1 were each diluted with a 10 mg/mL ascorbic acid-containing physiological saline solution to prepare solutions (20-31 MBq/mL in radioactive concentration). 0.05 mL each of the prepared sample solutions was injected under thiopental anesthesia into the tail vein of the respective Wistar rat (7-week old). The rats were sacrificed by bleeding from abdominal artery, and brains were removed and subjected to measurement of mass of brains and further subjected to measurement of radioactivity (hereinafter referred to as A in this Example) with a single channel analyzer (detector type: SP-20 manufactured by OHYO KOKEN KOGYO Co., Ltd.) 2, 5, 30 and 60 minutes after the injection. Further, the radioactivity level of the rest of the whole body was measured in the same manner as above (hereinafter referred to as B in this Example). Using these measurement results, radioactive distribution per unit weight of brain (% ID/g) at the respective time points were calculated in accordance with the following formula (5).

amylin amyloid = molecular target: T1, amylin amyloid (Homo sapiens, UniProt P10997); test: In vitro binding of labeled compound to amylin amyloid (glass fiber filter); conditions: amylin amyloid 0.8 μg/mL, 22° C., 3 hours
T1 construct: Amylin (human) (manufactured by Wako); purchased Wako
T1 sequence (P10997 34-70 limits assumed): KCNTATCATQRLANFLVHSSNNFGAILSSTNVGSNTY
Experimental: (1) Using methods described in Examples 29 and 30, a 1 mg/mL suspension of aggregated amylin was prepared (hereinafter referred to as amyloid suspension in this Example) was prepared.
(§1) (8) A solution of Compound 1 which was synthesized by the method above in Example 3 was prepared (radioactivity of 500 MBq/mL), and diluted with a 0.1% bovine serum albumin-containing phosphate buffer (pH 7.4) to prepare a solution of 1.2-112.9 pM in terms of the total amount of 2-[4′-(2″-hydroxyethoxy)phenyl]-6-iodoimidazo[1,2-a]pyridine. […]
(§2) (11) The glass fiber filter used for the filtration of the mixture was washed with a 0.1% bovine serum albumin-containing phosphate buffer (0.2 mL×5), and radioactivity of the glass fiber filter was measured with an autowell gamma system (manufactured by Aloka, Type: ARC-7001).
(12) From the measurement results of (11), relation between the amount of Compound 1 binding to amyloid and addition amount of amyloid was evaluated. For a non-specific binding, it was determined from a sample in which no amyloid suspension was added above in (9) (Example 36). […]

insulin amyloid = molecular target: T2, insulin amyloid (Homo sapiens, UniProt P01308); test: In vitro binding of labeled compound to insulin amyloid (glass fiber filter); conditions: insulin amyloid 0.8 μg/mL, 22° C., 3 hours
T2 construct: 5 mg of insulin (manufactured by Sigma Aldrich Japan); purchased Sigma Aldrich Japan
Experimental: Insulin with cross -sheet structure was prepared by the following procedures (2) and (3) which was the method described in the known literature (Burke, M. J. et al., Biochemistry. 11, p. 2435-2439 (1972)) to which a little modification was made.
(2) 5 mg of insulin (manufactured by Sigma Aldrich Japan) was dissolved in 1 mL of deionized water which was adjusted to pH 2 with hydrochloric acid, and the solution was heated at 90° C. for 10 minutes, and then quickly cooled in dry ice/ethanol.
(3) A sample solution of (2) was heated at 90° C. for 5 minutes, and then quickly cooled in dry ice/ethanol. […]
as §1, §2
(12) From the measurement results of (11), relation between the amount of Compound 1 binding to amyloid and addition amount of amyloid was evaluated. […]

T2 sequence (P01308 25-54 limits assumed): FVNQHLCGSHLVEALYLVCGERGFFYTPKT
T2 sequence (P01308 90-110 limits assumed): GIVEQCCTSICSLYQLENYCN

Substance	Radioactive distribution per unit weight of brain ([1]; After 2 min., Table 5)	Radioactive distribution per unit weight of brain ([1]; After 5 min., Table 5)	Radioactive distribution per unit weight of brain ([1]; After 30 min., Table 5)	Radioactive distribution per unit weight of brain ([1]; After 60 min., Table 5)	Radioactivity of the glass fiber filter versus amyloid non-added group (amylin amyloid)	Radioactivity of the glass fiber filter versus amyloid non-added group (insulin amyloid)	Radioactive distribution per unit weight of brain ([1]; After 2 min., Table 7)	Radioactive distribution per unit weight of brain ([1]; After 5 min., Table 7)	Radioactive distribution per unit weight of brain ([1]; After 30 min., Table 7)	Radioactive distribution per unit weight of brain ([1]; After 60 min., Table 7)
2-[4′-(2″-hydroxyethoxy)phenyl]-6-[^123I]iodoimidazo[1,2-a]pyridine [Compound 1]	0.90 % ID/g	0.52 % ID/g	0.06 % ID/g	0.01 % ID/g	all high compared to the group without amyloid suspension	all high compared to the group without amyloid suspension	–	–	–	–
2-(4′-ethoxyphenyl)-6-[^123I]iodoimidazo[1,2-a]pyridine [Compound 2]	0.89 % ID/g	0.66 % ID/g	0.13 % ID/g	0.04 % ID/g	–	–	–	–	–	–
2-[4′-(3″-hydroxypropoxy)phenyl]-6-[^123I]iodoimidazo[1,2-a]pyridine [Compound 6]	–	–	–	–	all high compared to the group without amyloid suspension	all high compared to the group without amyloid suspension	0.81 % ID/g	0.56 % ID/g	0.07 % ID/g	0.02 % ID/g
